Data reported in ChEMBL document CHEMBL1141073, “E-ring modified steroids as novel potent inhibitors of 17beta-hydroxysteroid dehydrogenase type 1” (J Med Chem, 2005).

Columns and labels:
Format in all cases: cell-based
[1] = target: T1, 17-beta-hydroxysteroid dehydrogenase type 2 (Homo sapiens) (UniProt P37059); assay: Inhibitory activity at 10 uM against 17-beta-hydroxysteroid dehydrogenase type 2 in MDAMB-231 human breast cancer cells using 2 nM [3H]estradiol; details: Cancer cell lines
T1 sequence (whole entry): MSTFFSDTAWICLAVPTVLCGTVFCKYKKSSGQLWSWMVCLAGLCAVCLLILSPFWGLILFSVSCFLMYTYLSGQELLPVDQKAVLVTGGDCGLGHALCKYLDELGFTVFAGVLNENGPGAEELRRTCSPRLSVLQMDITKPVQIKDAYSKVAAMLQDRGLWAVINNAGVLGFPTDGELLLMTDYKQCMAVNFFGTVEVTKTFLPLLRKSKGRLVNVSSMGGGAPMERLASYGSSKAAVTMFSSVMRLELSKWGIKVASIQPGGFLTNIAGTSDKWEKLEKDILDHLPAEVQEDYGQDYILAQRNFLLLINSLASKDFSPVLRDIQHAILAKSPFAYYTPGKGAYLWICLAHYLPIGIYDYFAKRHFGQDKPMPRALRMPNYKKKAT

[2] = target: T2, 17-beta-hydroxysteroid dehydrogenase type 1 (Homo sapiens) (UniProt P14061); assay: Inhibitory activity at 10 uM against 17-beta-hydroxysteroid dehydrogenase type 1 expressed in T47D human breast cancer cells using 2 nM [3H]estrone
T2 sequence (whole entry): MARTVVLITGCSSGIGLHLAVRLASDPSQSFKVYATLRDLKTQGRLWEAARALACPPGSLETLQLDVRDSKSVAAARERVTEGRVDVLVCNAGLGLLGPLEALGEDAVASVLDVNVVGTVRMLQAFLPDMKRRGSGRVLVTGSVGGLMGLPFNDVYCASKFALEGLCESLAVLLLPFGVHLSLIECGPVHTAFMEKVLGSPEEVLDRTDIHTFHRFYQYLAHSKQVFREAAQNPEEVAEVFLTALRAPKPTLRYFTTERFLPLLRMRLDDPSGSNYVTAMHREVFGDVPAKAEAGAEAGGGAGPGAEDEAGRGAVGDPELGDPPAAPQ

[3] = target: T3, 17-beta-hydroxysteroid dehydrogenase type 1 (Homo sapiens, UniProt P14061); assay: Inhibition of 17-beta-hydroxysteroid dehydrogenase type 1 expressed in T47D human breast cancer cells using 2 nM [3H]estrone
T3 sequence (P14061 whole entry): T2 sequence (whole entry)

| inhibition [1] [%] | inhibition [2] [%] | Structure (SMILES) | IC50 [3] [nM] |
| --- | --- | --- | --- |
| 61 | 80 | Cc1cnc(CNC(=O)c2[nH]nc3c2CC2C4CCc5cc(O)ccc5C4CC[C@]32C)cn1 (stereo not given in full) |  |
| 7 | 75 | CCOC(=O)C(=O)C1=C(O)[C@@]2(C)CCC3c4ccc(O)cc4CCC3C2C1 (stereo not given in full) |  |
| 48 | 95 | COCCn1cc2c(n1)[C@@]1(C)CCC3c4ccc(O)cc4CCC3C1C2 (stereo not given in full) |  |
| 44 | 70 | CC(C)Cn1ncc2c1[C@@]1(C)CCC3c4ccc(O)cc4CCC3C1C2 (stereo not given in full) |  |
| 14 | 62 | CNC(=O)c1[nH]nc2c1CC1C3CCc4cc(O)ccc4C3CC[C@]21C (stereo not given in full) |  |
| 55 | 83 | COCCn1ncc2c1[C@@]1(C)CCC3c4ccc(O)cc4CCC3C1C2 (stereo not given in full) |  |
| 9 | 93 | C[C@]12CCC3c4ccc(O)cc4CCC3C1Cc1c2n[nH]c1C(=O)NCc1ccccn1 (stereo not given in full) |  |
| 15 | 97 | C[C@]12CCC3c4ccc(O)cc4CCC3C1CC(C=O)=C2O (stereo not given in full) | 110 |
| 19 | 95 | COC(=O)Cn1cc2c(n1)[C@@]1(C)CCC3c4ccc(O)cc4CCC3C1C2 (stereo not given in full) |  |
| 6 | 88 | CCN(C)C(=O)c1[nH]nc2c1CC1C3CCc4cc(O)ccc4C3CC[C@]21C (stereo not given in full) |  |
| 6 | 32 | C[C@]12CCC3c4ccc(O)cc4CCC3C1Cc1c2n[nH]c1C(=O)O (stereo not given in full) |  |
| 36 | 75 | C[C@]12CCC3c4ccc(O)cc4CCC3C1Cc1c2n[nH]c1C(F)(F)F (stereo not given in full) |  |
| 24 | 94 | Cn1cc2c(n1)[C@@]1(C)CCC3c4ccc(O)cc4CCC3C1C2 (stereo not given in full) |  |
| 4 | 89 | Cn1cccc1CNC(=O)c1[nH]nc2c1CC1C3CCc4cc(O)ccc4C3CC[C@]21C (stereo not given in full) |  |
| 1.5 | 78 | C[C@]12CCC3c4ccc(O)cc4CCC3C1CC(C(=O)C(F)(F)F)=C2O (stereo not given in full) |  |
| 0 | 57 | CC(C)NC(=O)c1[nH]nc2c1CC1C3CCc4cc(O)ccc4C3CC[C@]21C (stereo not given in full) |  |
| 7 | 94 | CCOC(=O)c1[nH]nc2c1CC1C3CCc4cc(O)ccc4C3CC[C@]21C (stereo not given in full) |  |
| 32 | 43 | Cn1ncc2c1[C@@]1(C)CCC3c4ccc(O)cc4CCC3C1C2 (stereo not given in full) |  |
| 1 | 94 | C[C@]12CCC3c4ccc(O)cc4CCC3C1Cc1c(CO)n[nH]c12 (stereo not given in full) |  |
| 44 | 95 | C[C@]12CCC3c4ccc(O)cc4CCC3C1Cc1cn(CCC#N)nc12 (stereo not given in full) |  |
| 34 | 78 | C[C@]12CCC3c4ccc(O)cc4CCC3C1Cc1cccnc12 (stereo not given in full) |  |
| 61 | 77 | CC(C)Cn1cc2c(n1)[C@@]1(C)CCC3c4ccc(O)cc4CCC3C1C2 (stereo not given in full) |  |
| 2 | 55 | C[C@]12CC[C@@H]3c4ccc(O)cc4CCC3[C@@H]1CC(=N/O)/C2=N\O (single isomer, unassigned) |  |
| 12 | 85 | CC1(C#N)C[C@H]2C3CCc4cc(O)ccc4[C@H]3CC[C@]2(C)C1=O (single isomer, unassigned) |  |
| 4 | 87 | C[C@]12CCC3c4ccc(O)cc4CCC3C1Cc1c2n[nH]c1C(=O)NCC1CCCO1 (stereo not given in full) |  |
| 30 | 79 | COC(=O)Cn1ncc2c1[C@@]1(C)CCC3c4ccc(O)cc4CCC3C1C2 (stereo not given in full) |  |
| 28 | 92 | C[C@]12CCC3c4ccc(O)cc4CCC3C1Cc1c2n[nH]c1C(=O)NCc1cccnc1 (stereo not given in full) |  |
| 3 | 99 | C[C@]12CCC3c4ccc(O)cc4CCC3C1Cc1c2n[nH]c1C(=O)NCCc1cccnc1 (stereo not given in full) |  |
| 1 | 50 | CN1CCN(CNC(=O)c2[nH]nc3c2CC2C4CCc5cc(O)ccc5C4CC[C@]32C)CC1 (stereo not given in full) |  |
| 35 | 95 | CC1(C)C[C@H]2C3CCc4cc(O)ccc4[C@H]3CC[C@]2(C)C1=O (single isomer, unassigned) |  |

| Structure (SMILES) | inhibition [1] [%] | inhibition [2] [%] | IC50 [3] [nM] |
| --- | --- | --- | --- |
| C[C@]12CCC3c4ccc(O)cc4CCC3C1Cc1c[nH]nc12 (stereo not given in full) | 32 | 97 | 180 |
| C[C@]12CC[C@@H]3c4ccc(O)cc4CCC3[C@@H]1C/C(=N/O)C2=O (single isomer, unassigned) | 5 | 95 | 1100 |
| C[C@]12CC[C@@H]3c4ccc(O)cc4CCC3[C@@H]1CC(C#N)C2=O (single isomer, unassigned) | 17 | 77 | 10000 |
